Test results published in paper PMC11995216, “End-to-End Backbone Cyclization Enhances Passive Permeability of bRo5 Oligomeric Depsipeptides with Nonlinear Size Dependence” (ACS Medicinal Chemistry Letters, 2025).
“And” between values parts separate entries of the source, which are not always exact repeats. Equal entries are not always repeated. Where two headings read alike, the source gives them in different places. Values belong to the compound of their own block, whether it stands above or below them.

Columns and labels:
[1] = calculated using Supplement Equation 1, UV detection
PAMPA [2] = settings: UV detection
[3] = UV detection
PAMPA [4] = settings: UV detection, initial concentration 500 uM
[5] = PAMPA, 500 uM
in vitro = settings: PAMPA
[6] = initial concentration 500 uM, UV detection
[7] = initial concentration 500 uM, UV detection; remark: listed apart in the source

- %T ([1]; Well 1 / %T, Well 1): 0.34% and 0.4%
- %T ([1]; Well 2 / %T, Well 2): 0.4%
- %T ([1]; Well 3 / %T, Well 3): 0.36% and 0.39%
- %T ([1]; Well 4 / %T, Well 4): 0.36% and 0.38%
- %T ([1]; Well 5 / %T, Well 5): 0.38% and 0.4%
- Papp (PAMPA [2]; Papp (x 10^-6 cm/s) / [row 1]): 2.7 ×10⁻⁶ cm/s
- Papp (PAMPA [2]; Papp (x 10^-6 cm/s) / [row 2]): 2.86 ×10⁻⁶ cm/s
- Papp (PAMPA [2]; Papp (x 10^-6 cm/s) / [row 3]): 3.2 ×10⁻⁶ cm/s
- Papp (PAMPA [2]; Papp (x 10^-6 cm/s) / [row 4]): 2.91 ×10⁻⁶ cm/s
- Papp (PAMPA [2]; Papp (x 10^-6 cm/s) / [row 5]): 2.54 ×10⁻⁶ cm/s
- Papp (PAMPA [2]; Papp (x 10^-6 cm/s) / [row 6]): 2.78 ×10⁻⁶ cm/s
- Papp (PAMPA [2]; Papp (x 10^-6 cm/s) / [row 7]): 2.8 ×10⁻⁶ cm/s
- Papp (PAMPA [2]; Papp (x 10^-6 cm/s) / [row 8]): 2.55 ×10⁻⁶ cm/s
- Papp (PAMPA [2]; Papp (x 10^-6 cm/s) / [row 9]): 2.9 ×10⁻⁶ cm/s
- Papp (PAMPA [2]; Papp (x 10^-6 cm/s) / [row 10]): 2.68 ×10⁻⁶ cm/s
- % recovery ([3]; Well 1 / %R, Well 1): 95%
- % recovery ([3]; Well 2 / %R, Well 2): 91% and 89%
- % recovery ([3]; Well 3 / %R, Well 3): 91%
- % recovery ([3]; Well 4 / %R, Well 4): 98% and 90%
- % recovery ([3]; Well 5 / %R, Well 5): 89%
- LogPapp [5]: -5.55 ± 0.03
- Δ % diffusion [5]: ↑17%
- Papp at 500 uM (in vitro; Papp): 2.79 ± 0.19 ×10⁻⁶ cm/s
SMILES: CCCCC[C@H](NC(=O)[C@@H](C)N(C)C(=O)OC(C)(C)C)C(=O)N(C)[C@H](C)C(=O)N[C@H](CCCCC)C(=O)N(C)[C@H](C)C(=O)O[C@@H](CCCCC)C(=O)N(C)[C@H](C)C(=O)O[C@@H](CCCCC)C(=O)OCc1ccccc1 (stereo in doubt) [Compound L2.2]
- Acceptor Concentration (PAMPA [4]; Acceptor Concentration (uM) / [row 1]): 68.3 µM
- Acceptor Concentration (PAMPA [4]; Acceptor Concentration (uM) / [row 2]): 68.9 µM
- Acceptor Concentration (PAMPA [4]; Acceptor Concentration (uM) / [row 3]): 76.7 µM
- Acceptor Concentration (PAMPA [4]; Acceptor Concentration (uM) / [row 4]): 75.8 µM
- Acceptor Concentration (PAMPA [4]; Acceptor Concentration (uM) / [row 5]): 62.9 µM
- Acceptor Concentration (PAMPA [4]; Acceptor Concentration (uM) / [row 6]): 70.1 µM
- Acceptor Concentration (PAMPA [4]; Acceptor Concentration (uM) / [row 7]): 66.3 µM
- Acceptor Concentration (PAMPA [4]; Acceptor Concentration (uM) / [row 8]): 62.1 µM
- Acceptor Concentration (PAMPA [4]; Acceptor Concentration (uM) / [row 9]): 69 µM
- Acceptor Concentration (PAMPA [4]; Acceptor Concentration (uM) / [row 10]): 63.9 µM
- donor concentration after incubation ([6]; Well 1 / [donor], Well 1): 406 µM and 404 µM
- donor concentration after incubation ([6]; Well 2 / [donor], Well 2): 384 µM and 380 µM
- donor concentration after incubation ([6]; Well 3 / [donor], Well 3): 381 µM and 392 µM
- donor concentration after incubation ([6]; Well 4 / [donor], Well 4): 416 µM and 380 µM
- donor concentration after incubation ([6]; Well 5 / [donor], Well 5): 398 µM and 382 µM
- acceptor concentration after incubation ([7]; Well 1 / [acc], Well 1): 70.2 µM

- %T ([1]; Well 1 / %T, Well 1): 0.43% and 0.47%
- %T ([1]; Well 2 / %T, Well 2): 0.48% and 0.46%
- %T ([1]; Well 3 / %T, Well 3): 0.48% and 0.47%
- %T ([1]; Well 4 / %T, Well 4): 0.48% and 0.49%
- %T ([1]; Well 5 / %T, Well 5): 0.5% and 0.49%
- Papp (PAMPA [2]; Papp (x 10^-6 cm/s) / experiment 1): 3.2 ×10⁻⁶ cm/s
- Papp (PAMPA [2]; Papp (x 10^-6 cm/s) / experiment 2): 3.8 ×10⁻⁶ cm/s
- Papp (PAMPA [2]; Papp (x 10^-6 cm/s) / experiment 3): 3.8 ×10⁻⁶ cm/s
- Papp (PAMPA [2]; Papp (x 10^-6 cm/s) / experiment 4): 3.7 ×10⁻⁶ cm/s
- Papp (PAMPA [2]; Papp (x 10^-6 cm/s) / experiment 5): 3.9 ×10⁻⁶ cm/s
- Papp (PAMPA [2]; Papp (x 10^-6 cm/s) / experiment 6): 3.4 ×10⁻⁶ cm/s
- Papp (PAMPA [2]; Papp (x 10^-6 cm/s) / experiment 7): 3.9 ×10⁻⁶ cm/s
- Papp (PAMPA [2]; Papp (x 10^-6 cm/s) / experiment 8): 3.3 ×10⁻⁶ cm/s
- Papp (PAMPA [2]; Papp (x 10^-6 cm/s) / experiment 9): 3.7 ×10⁻⁶ cm/s
- Papp (PAMPA [2]; Papp (x 10^-6 cm/s) / experiment 10): 3.6 ×10⁻⁶ cm/s
- % recovery ([3]; Well 1 / %R, Well 1): 93%
- % recovery ([3]; Well 2 / %R, Well 2): 96%
- % recovery ([3]; Well 3 / %R, Well 3): 85% and 90%
- % recovery ([3]; Well 4 / %R, Well 4): 84% and 85%
- % recovery ([3]; Well 5 / %R, Well 5): 82%
- Δ % diffusion [5]: ↑5%
- Papp at 500 uM (in vitro; LogPapp): 1.82 ×10⁻⁶ cm/s
- Papp at 500 uM (in vitro; Papp): 3.44 ± 0.33 ×10⁻⁶ cm/s
SMILES: CCCCC[C@H](OC(=O)[C@@H](C)N(C)C(=O)[C@H](CCCCC)OC(=O)[C@@H](C)N(C)C(=O)OC(C)(C)C)C(=O)OCc1ccccc1 [Compound L1.2]
- Acceptor Concentration (PAMPA [4]; Acceptor Concentration (uM) / experiment 1): 72 µM
- Acceptor Concentration (PAMPA [4]; Acceptor Concentration (uM) / experiment 2): 80.6 µM
- Acceptor Concentration (PAMPA [4]; Acceptor Concentration (uM) / experiment 3): 77.4 µM
- Acceptor Concentration (PAMPA [4]; Acceptor Concentration (uM) / experiment 4): 75.2 µM
- Acceptor Concentration (PAMPA [4]; Acceptor Concentration (uM) / experiment 5): 77.1 µM
- Acceptor Concentration (PAMPA [4]; Acceptor Concentration (uM) / experiment 6): 90.3 µM
- Acceptor Concentration (PAMPA [4]; Acceptor Concentration (uM) / experiment 7): 86.9 µM
- Acceptor Concentration (PAMPA [4]; Acceptor Concentration (uM) / experiment 8): 80.4 µM
- Acceptor Concentration (PAMPA [4]; Acceptor Concentration (uM) / experiment 9): 87.3 µM
- Acceptor Concentration (PAMPA [4]; Acceptor Concentration (uM) / experiment 10): 83.7 µM
- donor concentration after incubation ([6]; Well 1 / [donor], Well 1, standard curve): 391 µM and 364 µM
- donor concentration after incubation ([6]; Well 2 / [donor], Well 2, standard curve): 361 µM and 396 µM
- donor concentration after incubation ([6]; Well 3 / [donor], Well 3, standard curve): 348 µM and 368 µM
- donor concentration after incubation ([6]; Well 4 / [donor], Well 4, standard curve): 345 µM and 348 µM
- donor concentration after incubation ([6]; Well 5 / [donor], Well 5, standard curve): 331 µM and 358 µM
- acceptor concentration after incubation ([7]; Well 1 / [acc], Well 1, standard curve): 77 µM
- acceptor concentration after incubation ([7]; Well 2 / [acc], Well 2, standard curve): 81.5 µM
- acceptor concentration after incubation ([7]; Well 3 / [acc], Well 3, standard curve): 79.5 µM
- acceptor concentration after incubation ([7]; Well 4 / [acc], Well 4, standard curve): 78.8 µM
- acceptor concentration after incubation ([7]; Well 5 / [acc], Well 5, standard curve): 81.8 µM
